According to patent US11981658B2, “Substituted aminopyridine compounds as EGFR inhibitors” (YUHAN CORPORATION, priority 2021, dated 2024):
Like-named read-outs stand apart in the source and are kept apart here.

Experiments:
[1] = molecular target: EGFR Del19/C797S (Homo sapiens, UniProt P00533, C797S/DEL746-750); assay: Biochemical EGFR kinase inhibition assay (Lance Ultra TR-FRET), double mutant del19/C797S
Outline: (§1)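 Enzyme reactions lasted 1 hour at room temperature with test compounds between 0.003 and 10 μM, followed by 10 mM EDTA quench.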

[2] = molecular target: EGFR L858R/C797S (Homo sapiens, UniProt P00533, C797S/L858R); assay: Biochemical EGFR kinase inhibition assay (Lance Ultra TR-FRET), double mutant L858R/C797S
Outline: as §1

[3] = molecular target: EGFR L858R/T790M/C797S (Homo sapiens, UniProt P00533, C797S/L858R/T790M); assay: Biochemical EGFR kinase inhibition assay (Lance Ultra TR-FRET), triple mutant L858R/T790M/C797S
Outline: as §1

[4] = molecular target: EGFR Del19/T790M/C797S (Homo sapiens, UniProt P00533, C797S/DEL746-750/T790M); assay: Biochemical EGFR kinase inhibition assay (Lance Ultra TR-FRET), triple mutant del19/T790M/C797S
Outline: as §1

[5] = molecular target: EGFR wildtype (WT) (Homo sapiens, UniProt P00533); assay: Biochemical EGFR kinase inhibition assay (Lance Ultra TR-FRET), wildtype
Outline: as §1

[6] = ATP at Km, read-out: IC50 Del19/C797S (nM), Km ATP
[7] = IC50 Del19/C797S (nM), 100 μM ATP
[8] = ATP at Km, read-out: IC50 L858R/C797S (nM), Km ATP
[9] = IC50 L858R/C797S (nM), 100 μM ATP
[10] = ATP at Km, read-out: IC50 L858R/T790M/C797S (nM), Km ATP
[11] = IC50 L858R/T790M/C797S (nM), 100 μM ATP
[12] = ATP at Km, read-out: IC50 Del19/T790M/C797S (nM), Km ATP
[13] = IC50 Del19/T790M/C797S (nM), 100 μM ATP
[14] = ATP at Km, read-out: IC50 WT (nM), Km ATP
[15] = Km ATP, read-out: IC50 Del19/C797S (nM) Km ATP
[16] = Km ATP, read-out: IC50 L858R/C797S (nM) Km ATP
[17] = Km ATP, read-out: IC50 L858R/T790M/C797S (nM) Km ATP
[18] = Km ATP, read-out: IC50 Del19/T790M/C797S (nM) Km ATP
[19] = Km ATP, read-out: IC50 WT (nM) Km ATP

Molecule | IC50 [1, 6] | IC50 [1, 7] | IC50 [2, 8] | IC50 [2, 9] | IC50 [3, 10] | IC50 [3, 11] | IC50 [4, 12] | IC50 [4, 13] | IC50 [5, 14] | IC50 ([5]; IC50 WT (nM), 100 μM ATP) | further results
CC1(CO)CCN(c2cc(Nc3ccnc(-c4cnn(S(=O)(=O)C5CC5)c4)n3)ncc2C#CC2CC(C(C)(C)O)C2)CC1 (stereo not shown) [Example 266, 2-(3-((6-((2-(1-(Cyclopropylsulfonyl)-1H-pyrazol-4-yl)pyrimidin-4-yl)amino)-4-(4-(hydroxymethyl)-4-methylpiperidin-1-yl)pyridin-3-yl)ethynyl)cyclobutyl)propan-2-ol] | 1.1 nM | 2.1 nM | 0.9 nM | 5.4 nM | 0.4 nM | 0.4 nM | 1 nM | 0.8 nM | 7.2 nM | 1230 nM | 
(1-(2-((2-(1-(Cyclopropylsulfonyl)-1H-pyrazol-4-yl)pyrimidin-4-yl)amino)-5-((5-((3,3-difluoroazetidin-1-yl)methyl)-1-(2,2-difluoroethyl)-1H-pyrrol-3-yl)ethynyl)pyridin-4-yl)-4-methylpiperidin-4-yl)methanol [Example 248] | 9.9 nM |  | 16.6 nM |  |  |  | 8.3 nM |  | 30.1 nM |  | IC50 ([1]; read-out: IC50 Del19/C797S (nM), 100 μM ATP): 8.6 nM; IC50 ([2]; read-out: IC50 L858R/C797S (nM), 100 μM ATP): 39.4 nM; IC50 ([3]; read-out: IC50 L858R/T790M/C797S (nM), 100 μM ATP): 11.4 nM; IC50 ([4]; read-out: IC50 Del19/T790M/C797S (nM), 100 μM ATP): 13.8 nM; IC50 ([5]; read-out: IC50 WT (nM), 100 μM ATP): 6600 nM
CN(C)C[C@H]1CC[C@H](COc2cc(Nc3ccnc(-c4cnn(S(=O)(=O)C5CC5)c4)n3)ncc2C#Cc2cnn(C3CC3)c2)CC1 [Example 60, N-(5-((1-Cyclopropyl-1H-pyrazol-4-yl)ethynyl)-4-(((1r,4r)-4-((dimethylamino)methyl)cyclohexyl)methoxy)pyridin-2-yl)-2-(1-(cyclopropylsulfonyl)-1H-pyrazol-4-yl)pyrimidin-4-amine] |  |  |  |  |  |  |  |  |  |  | IC50 [1, 15]: 0.4 nM; IC50 [2, 16]: 2.6 nM; IC50 [3, 17]: 0.1 nM; IC50 [4, 18]: 0.5 nM; IC50 [5, 19]: 8.8 nM
CN(C)CCn1cc(C#Cc2cnc(Nc3ccnc(-c4cnn(S(=O)(=O)C5CC5)c4)n3)cc2N2CCCC(CO)C2)cn1 (stereo not shown) [Example 118, (1-(2-((2-(1-(Cyclopropylsulfonyl)-1H-pyrazol-4-yl)pyrimidin-4-yl)amino)-5-((1-(2-(dimethylamino)ethyl)-1H-pyrazol-4-yl)ethynyl)pyridin-4-yl)piperidin-3-yl)methanol] |  | 0.8 nM |  | 8.5 nM |  | 0.5 nM |  | 0.6 nM |  | 2690 nM | IC50 [1, 15]: 0.7 nM; IC50 [2, 16]: 0.6 nM; IC50 [3, 17]: 0.2 nM; IC50 [4, 18]: 0.5 nM; IC50 [5, 19]: 10.2 nM
COC1(O)CCN(c2cc(Nc3ccnc(-c4cnn(S(=O)(=O)C5CC5)c4)n3)ncc2C#Cc2ncc(CN3CCOCC3)cn2)CC1 [Example 365, 1-(2-((2-(1-(Cyclopropylsulfonyl)-1H-pyrazol-4-yl)pyrimidin-4-yl)amino)-5-((5-(morpholinomethyl)pyrimidin-2-yl)ethynyl)pyridin-4-yl)-4-methoxypiperidin-4-ol] |  | 3.5 nM |  | 46.6 nM |  | 1.3 nM |  | 0.7 nM |  | > 10000 nM | IC50 ([1]; Km ATP, read-out: IC50 Del19/C797S (nM), Km ATP): 3.3 nM; IC50 ([2]; Km ATP, read-out: IC50 L858R/C797S (nM), Km ATP): 3.9 nM; IC50 ([3]; Km ATP, read-out: IC50 L858R/T790M/C797S (nM), Km ATP): 0.1 nM; IC50 ([4]; Km ATP, read-out: IC50 Del19/T790M/C797S (nM), Km ATP): 0.4 nM; IC50 ([5]; Km ATP, read-out: IC50 WT (nM), Km ATP): 10.5 nM
CC1(CO)CCN(c2cc(Nc3ccnc(-c4cnn(S(=O)(=O)C5CC5)c4)n3)ncc2C#Cc2cccc(C(=O)N3CCOCC3)n2)CC1 [Example 265, (6-((6-((2-(1-(Cyclopropylsulfonyl)-1H-pyrazol-4-yl)pyrimidin-4-yl)amino)-4-(4-(hydroxymethyl)-4-methylpiperidin-1-yl)pyridin-3-yl)ethynyl)pyridin-2-yl)(morpholino)methanone] | 0.8 nM | 1.1 nM | 0.9 nM | 9.1 nM | 0.3 nM | 0.8 nM | 0.8 nM | 0.9 nM | 7.6 nM | 6520 nM | 
O=S(=O)(C1CC1)n1cc(-c2nccc(Nc3cc(N[C@H]4CC[C@@H](O)CC4)c(C#Cc4ccc(CN5CCOCC5)cn4)cn3)n2)cn1 [Example 184, (1s,4s)-4-((2-((2-(1-(Cyclopropylsulfonyl)-1H-pyrazol-4-yl)pyrimidin-4-yl)amino)-5-((5-(morpholinomethyl)pyridin-2-yl)ethynyl)pyridin-4-yl)amino)cyclohexan-1-ol] | 2.3 nM | 3.5 nM | 3.2 nM | 94.1 nM | 0.2 nM | 2.1 nM | 0.4 nM | 1.5 nM | 11.7 nM | > 10000 nM | 
O=S(=O)(C1CC1)n1cc(-c2nccc(Nc3cc(N[C@H]4CC[C@@H](O)CC4)c(C#Cc4ccc(CN5CCOCC5)s4)cn3)n2)cn1 [Example 190, (1s,4s)-4-((2-((2-(1-(Cyclopropylsulfonyl)-1H-pyrazol-4-yl)pyrimidin-4-yl)amino)-5-((5-(morpholinomethyl)thiophen-2-yl)ethynyl)pyridin-4-yl)amino)cyclohexan-1-ol] | 3.3 nM | 4.6 nM | 8.9 nM | 71.5 nM | 1 nM | 6.7 nM | 1.8 nM | 5.1 nM | 19.7 nM | > 10000 nM | 
Cn1cc(C#Cc2cnc(Nc3ccnc(-c4cnn(S(=O)(=O)C5CC5)c4)n3)cc2N2CCC(CO)C2)cn1 (stereo not shown) [Example 33, (1-(2-((2-(1-(Cyclopropylsulfonyl)-1H-pyrazol-4-yl)pyrimidin-4-yl)amino)-5-((1-methyl-1H-pyrazol-4-yl)ethynyl)pyridin-4-yl)pyrrolidin-3-yl)methanol] |  | 10.2 nM |  | 152 nM |  | 3.7 nM |  | 1.9 nM |  | > 10000 nM | 
CN1CCC2(CC1)CCN(c1cc(Nc3ccnc(-c4cnn(S(=O)(=O)C5CC5)c4)n3)ncc1C#Cc1cnn(C)c1)CC2 [Example 318, 2-(1-(Cyclopropylsulfonyl)-1H-pyrazol-4-yl)-N-(5-((1-methyl-1H-pyrazol-4-yl)ethynyl)-4-(9-methyl-3,9-diazaspiro[5.5]undecan-3-yl)pyridin-2-yl)pyrimidin-4-amine] |  | 4.2 nM |  | 18.4 nM |  | 0.4 nM |  | 0.3 nM |  | 5990 nM | 
O=S(=O)(C1CC1)n1cc(-c2nccc(Nc3cc(N[C@H]4CC[C@@H](CO)CC4)c(C#Cc4cnn(CC(F)F)c4)cn3)n2)cn1 [Example 324, ((1s,4s)-4-((2-((2-(1-(Cyclopropylsulfonyl)-1H-pyrazol-4-yl)pyrimidin-4-yl)amino)-5-((1-(2,2-difluoroethyl)-1H-pyrazol-4-yl)ethynyl)pyridin-4-yl)amino)cyclohexyl)methanol] | 1.3 nM | 2 nM | 3.7 nM | 20.9 nM | 0.2 nM | 0.5 nM | 0.3 nM | 0.3 nM | 16.5 nM | > 10000 nM | 
